Patent US10464963B2, “Compounds from invasive Salvinias and methods of using the same” (STEPHEN F. AUSTIN STATE UNIVERSITY, priority 2013, dated 2019)
Read-outs that look alike come from different tables or passages of the source.

Columns and labels:
[1] = system: human breast cancer (MDA-MB-231); assay: cells; format: cell-based
Source text: Human exocrine pancreatic cancer (PANC-1 and BxPC-3), non-small cell lung cancer (A549), prostate cancer (PC-3), breast cancer (MDA-MB-231), and leukemia (HL-60) were obtained from The University of Texas M. D. Anderson Cancer Center, Houston, Tex., and Normal human lung fibroblasts cells (MRC-5) was purchased from the American Type Culture Collection (ATCC). PC-3, A549 and HL-60 cells were maintained in RPMI 1640 medium supplemented with 10% (v/v) fetal bovine serum and antibiotics (1,000 units/mL penicillin-streptomycin solution, Hyclone). PANC-1 and MRC-5 was cultured in complete growth medium according to the ATCC protocols. Cells were grown at 37° C. and 5% CO2 in humidified air.
(§1) Cytotoxicity of total extracts of S. molesta was tested against PANC-1, A549, PC-3, and MRC-5. Cytotoxicity of the fractions was determined using A549 cells, a human non-small lung cancer cell line. Fractions were tested at 25, 50, and 100 μg/mL. The isolated pure compounds were tested in each of the cultured human tumor and normal cell lines at various concentrations between 1 and 100 μM with three replications. Human tumor and normal cells were inoculated into 96 well microtiter plates in 90 μL at plating densities ranging from 5,000 to 40,000 cells/well (measured by Z2 Coulter Counter of Beckman) depending on the doubling time of individual cell lines. Cell growth and viability was measured by WST-8 (Water Soluble Tetrazolium) assays following a standard protocol (Cell Counting Kit-8, Dojindo Molecular, Maryland). The WST-8 assay measured the relative activity of mitochondrial reductase enzymes in viable cells. A control WST reading (T0) before treatment was measured, then cells were continuously exposed to isolates for 48 h. After WST added and incubated for 2 h, the amount of formazan was measured by using a microplate spectrophotometer (μQuant spectrophotometer, Bio-Tek Instruments, Inc., Vermont) at 450 nm. TC or TD represents the readings of the untreated control or with tested compounds. Percent cell-growth (G) and percent cell-growth inhibition (GI) was calculated as: G=(TD−T0/TC−T0)×100; GI=[1−(TD−T0/TC−T0)]×100 for which TD≥T0; and G=(TD−T0/T0)×100; GI=[1−(TD−T0/T0)]×100 for which TD≤T0. To determine the inhibitory potency of active compounds (GI50, 50% cell-growth inhibition), tests were extended to additional concentrations (varying from 0.01 to 100 μM). Cancer drug doxorubicin was used as the positive controls in the cell-based assays.

[2] = system: human exocrine pancreatic cancer (BxPC-3); assay: Cytotoxicity assay (WST-8), BxPC-3; format: cell-based; conditions: Homo sapiens
[3] = system: human exocrine pancreatic cancer cells (PANC-1); assay: Cell proliferation assay (CCK-8), PANC-1; format: cell-based; conditions: 12, 24, 48, 72 h, FIG. 3
Procedure: (§2) CCK-8 (Dojindo Molecular, Maryland) was used to measure the proliferation response of salviniol (6) and montbretol (8) against human exocrine pancreatic cancer cell lines (PANC-1 and BxPC-3), according to the manufacturer's instructions. Cell were grown in growth medium plus 10% FBS and 5% antibiotics in 96-well plates and then were treated with various concentrations of test compounds and incubated for 12, 24, 48, and 72 h, respectively. The end of the incubation period, 10% CCK-8 solution was added to the wells. After 2 h incubation, the absorbance at 450 nm was measured. A calibration curve was prepared using the absorbance observed known numbers of viable cells.

human leukemia (HL-60) = assay: Cytotoxicity assay (WST-8), HL-60; format: cell-based; conditions: Homo sapiens
[4] = system: human prostate cancer (PC-3); assay: Cytotoxicity assay (WST-8), PC-3; format: cell-based; conditions: Homo sapiens
Procedure: (§3) PANC-1 and MRC-5 was cultured in complete growth medium according to the ATCC protocols. Cells were grown at 37° C. and 5% CO2 in humidified air.
as §1, with “To determine the inhibitory potency of active compounds (GI50, 50% cell-growth inhibition), tests were extended to additional concentrations (varying from 0.01 to 100 μM).” left out

[5] = system: normal human lung fibroblasts cells (MRC-5); assay: Cytotoxicity assay (WST-8), MRC-5; format: cell-based
Procedure: as §3
as §1, with “To determine the inhibitory potency of active compounds (GI50, 50% cell-growth inhibition), tests were extended to additional concentrations (varying from 0.01 to 100 μM).” left out

[6] = system: human exocrine pancreatic cancer (PANC-1); assay: Cytotoxicity assay (WST-8), PANC-1; format: cell-based; conditions: Homo sapiens
Procedure: as §3
as §1, with “To determine the inhibitory potency of active compounds (GI50, 50% cell-growth inhibition), tests were extended to additional concentrations (varying from 0.01 to 100 μM).” left out

[7] = system: human exocrine pancreatic cancer cells (BxPC-3); assay: Cell proliferation assay (CCK-8), BxPC-3; format: cell-based; conditions: 12, 24, 48, 72 h, FIG. 3
Procedure: as §2

[8] = system: human non-small cell lung cancer (A549); assay: Cytotoxicity assay (WST-8), A549; format: cell-based; conditions: Homo sapiens
Procedure: as §3
as §1, with “To determine the inhibitory potency of active compounds (GI50, 50% cell-growth inhibition), tests were extended to additional concentrations (varying from 0.01 to 100 μM).” left out

[9] = Cytotoxicity assay (WST-8), MRC-5; format: cell-based, human; conditions: human
Procedure: as §3
as §1, with “To determine the inhibitory potency of active compounds (GI50, 50% cell-growth inhibition), tests were extended to additional concentrations (varying from 0.01 to 100 μM).” left out

[10] = BXPC-3, Table 1, read-out: Activity against human exocrine pancreatic tumor BxPC-3 (GI50) (converted)
[11] = PANC-1, Table 1, read-out: Activity against human exocrine pancreatic tumor PANC-1 (GI50)
[12] = A549, Table 1, read-out: Activity against human non-small cell lung tumor A549 (GI50) (converted)

Compound: CC(C)c1cc2c(cc1O)[C@@]1(C)CCCC(C)(C)[C@@H]1C[C@H]2CC1=CCC(O)(C(C)C)CC1 (stereo partly drawn) [Compound 6, 7-(menth-1-en-4-ol)-ferruginol]
- GI50 ([1]; MDA-MB-231, 48 h, read-out: Cytotoxic activity (GI50) MDA-MB-231): 75 ± 1.37 µM
- GI50 ([1]; MDA-MB-231, Table 1, read-out: Activity against human breast tumor MDA-MB-231 (GI50)): 75 µM
- GI50 ([2]; BXPC-3, 48 h, read-out: Cytotoxic activity (GI50) BxPC-3): 87.3 ± 24.5 µM
- GI50 [2, 10]: 87.3 µM
- Effect on proliferation of PANC-1 cells (in words) [3]: inhibit human pancreatic cancer cell proliferation in a dose-dependent manner
- GI50 (human leukemia (HL-60); HL-60, 48 h, read-out: Cytotoxic activity (GI50) HL-60): 48.1 ± 10.9 µM
- GI50 (human leukemia (HL-60); HL-60, Table 1, read-out: Activity against human leukemia HL-60 (GI50) (converted)): 48.1 µM
- GI50 ([4]; 48 h, read-out: Cytotoxic activity (GI50) PC-3): 54.2 ± 5.9 µM
- GI50 ([4]; Table 1, read-out: Activity against human prostate tumor PC-3 (GI50) (converted)): 54.2 µM
- GI50 ([5]; human, 48 h): 58.4 ± 6.83 µM
- GI50 ([6]; PANC-1, 48 h, read-out: Cytotoxic activity (GI50) PANC-1): 60.4 ± 16.2 µM
- GI50 [6, 11]: 60.4 µM
- Effect on proliferation of BxPC-3 cells (in words) [7]: inhibit human pancreatic cancer cell proliferation in a dose-dependent manner
- GI50 ([8]; A549, 48 h, read-out: Cytotoxic activity (GI50) A549): 62.9 ± 9.63 µM
- GI50 [8, 12]: 62.9 µM

Compound: CC(C)c1cc2c(cc1O)[C@@]1(C)CCCC(C)(C)C1=C(O)C2=O [Compound 8, montbretol]
- GI50 [2, 10]: 25 µM
- GI50 ([2]; BXPC-3, Table 7, WST-8, 48 h exposure, mean ± S.D., read-out: Cytotoxic activity (GI50) BxPC-3): 25 ± 13.2 µM
- Effect on proliferation of PANC-1 cells (in words) [3]: inhibit human pancreatic cancer cell proliferation in a dose-dependent manner
- GI50 (human leukemia (HL-60); HL-60, Table 7, WST-8, 48 h exposure, mean ± S.D., read-out: Cytotoxic activity (GI50) HL-60): 11.5 ± 3.13 µM
- GI50 ([4]; Table 7, WST-8, 48 h exposure, mean ± S.D., read-out: Cytotoxic activity (GI50) PC-3): 13.2 ± 2.03 µM
- GI50 at 48 h [9]: 20 µM
- Toxicity against normal cell (in words) [5]: no toxic against normal cell
- GI50 [6, 11]: 23.1 µM
- GI50 ([6]; PANC-1, Table 7, WST-8, 48 h exposure, mean ± S.D., read-out: Cytotoxic activity (GI50) PANC-1): 23.1 ± 9.16 µM
- Effect on proliferation of BxPC-3 cells (in words) [7]: inhibit human pancreatic cancer cell proliferation in a dose-dependent manner
- GI50 [8, 12]: 11.1 µM
- GI50 ([8]; A549, Table 7, WST-8, 48 h exposure, mean ± S.D., read-out: Cytotoxic activity (GI50) A549): 11.1 ± 3.16 µM
